Experimental findings from US5721234A, “Glutamate receptor antagonists: fused cycloalkylouinoxalinediones” (Warner-Lambert Company, priority 1995, dated 1998) are described below.

Counter-ions that a name gives are not always drawn.

One test addresses AMPA receptors. The test can be described thus: AMPA receptor binding affinity (Honore et al.).
The target of test [1] is kainate site (non-NMDA receptor). Nature of the test: Kainate site (non-NMDA receptor) binding affinity (London and Coyle).
Test [2] relates to AMPA-induced neuronal damage in primary cortical neuronal cultures. Nature of the test: AMPA-induced neuronal damage in primary cortical neuronal cultures, LDH release. Type of test: cell-based. Conditions: long-term exposure to 100 μM AMPA. The method, then: To functionally measure AMPA antagonist activity, the effects of the agent on AMPA-induced neuronal damage in primary cortical neuronal cultures was examined using techniques similar to those outlined by Koh, J.-Y. et al., J. Neurosci, 1990; 10:693. The neuronal damage produced by long-term exposure to 100 μM AMPA was measured by the release of the cytosolic enzyme lactate dehydrogenase (LDH).
Selected compounds of the present invention were tested by one or more of the above-described assays. The IC50 values set forth in Tables 1 and 2 are a measure of the concentration (μM) of the test substance which inhibits 50% of an induced release from the tested receptors.
For orientation: LDH leaks from cells whose membrane has failed.

The target of test [3] is T1, glycine site of the NMDA receptor (Rattus norvegicus, UniProt P35439).
T1 construct: from tissue
Nature of the test: Glycine site of the NMDA receptor binding affinity (Jones et al.).

Setting [4] is: Table 1, cyclohexyl-fused analogs.
Where [5] appears, read: Table 2, cyclopentyl-fused analogs.

In general, IC50 refers to the concentration at which inhibition is half-maximal. Low readings indicate higher potency, high ones lower potency. As for `NC1CCc2c([N+](=O)[O-])cc3[nH]c(=O)c(=O)[nH]c3c2C1` (centres unmarked) [Example 15, 9-amino-6-nitro-1,4,7,8,9,10-hexahydro-benzo[f]quinoxaline-2,3-dione], the IC50 at AMPA receptors (setting [4]) came to 0.7 µM; in test [1] (setting [4]), 2.8 µM; in test [2] (setting [4]), 20 µM; in test [3] (setting [4]), 1.8 µM.
On to `CC(=O)NC1CCc2c([N+](=O)[O-])cc3[nH]c(=O)c(=O)[nH]c3c2C1` (centres unmarked) [Example 17, N-(6-nitro-2,3-dioxo-1,2,3,4,7,8,9,10-octahydro-benzo[f]quinoxalin-9-yl)-acetamide], for which the IC50 at AMPA receptors (setting [4]) is 0.56 µM; in test [1] (setting [4]) it was 2.2 µM; in test [2] (setting [4]), more than 30 µM; in test [3] (setting [4]) it was 0.62 µM.
In the case of `O=C(NC1CCc2c([N+](=O)[O-])cc3[nH]c(=O)c(=O)[nH]c3c2C1)c1ccccc1` (centres unmarked) [Example 36, N-(6-nitro-2,3-dioxo-1,2,3,4,7,8,9,10-octahydrobenzo[f]quinoxalin-9-yl)-benzamide], the IC50 was 0.42 µM on AMPA receptors (setting [4]), 0.9 µM in test [1] (setting [4]), 30 µM in test [2] (setting [4]) and 0.09 µM in test [3] (setting [4]).
On to `O=C(NC1CCc2c([N+](=O)[O-])cc3[nH]c(=O)c(=O)[nH]c3c2C1)C1CCCCC1` (centres unmarked) [Example 37, N-(6-nitro-2,3-dioxo-1,2,3,4,7,8,9,10-octahydrobenzo[f]quinoxalin9-yl)cyclohexylamide], for which the half-maximal inhibitory concentration (IC50) in test [2] (setting [4]) was determined as 28 µM; in test [3] (setting [4]) it was 0.5 µM.
For the compound `O=C(NC1Cc2c([N+](=O)[O-])cc3[nH]c(=O)c(=O)[nH]c3c2C1)c1ccccc1` (centres unmarked) [Example 39, N-(6-nitro-2,3-dioxo-4,7,8,9-tetrahydro-1H-cyclopenta[f]quinoxalin-8-yl)-benzamide], the IC50 at AMPA receptors (setting [5]) came to 0.11 µM; in test [1] (setting [5]), 0.48 µM; in test [2] (setting [5]), 18 µM; in test [3] (setting [5]), 0.4 µM.
As for `O=C(NC1CCc2c([N+](=O)[O-])cc3[nH]c(=O)c(=O)[nH]c3c2C1)C1CCNCC1` (centres unmarked) [Example 40, 4-(6-nitro-2,3-dioxo-1,2,3,4,7,8,9,10-octahydrobenzo[f]quinoxaline-9-ylcarbamoyl)-piperidine hydrochloride], the IC50 at AMPA receptors (setting [4]) was determined as 0.27 µM; in test [1] (setting [4]), 0.82 µM; in test [2] (setting [4]), 25 µM; in test [3] (setting [4]) it was 0.28 µM.
Take `O=C(NC1Cc2c([N+](=O)[O-])cc3[nH]c(=O)c(=O)[nH]c3c2C1)c1ccoc1` (centres unmarked) [Example 59, Furan-3-carboxylic acid (6-nitro-2,3-dioxo-2,3,4,7,8,9-hexahydro-1H-cyclopenta[f]quinoxalin-8-yl)-amide]: the IC50 at AMPA receptors (setting [5]) is 0.14 µM; in test [1] (setting [5]) it was 0.38 µM; in test [2] (setting [5]), 14 µM; in test [3] (setting [5]), more than 1 µM.
The like results for `O=C(NC1Cc2c([N+](=O)[O-])cc3[nH]c(=O)c(=O)[nH]c3c2C1)c1ccsc1` (centres unmarked) [Example 60, Thiophene-3-carboxylic acid (6-nitro-2,3-dioxo-2,3,4,7,8,9-hexahydro-1H-cyclopenta[f]quinoxalin-8-yl)amide] were, in that order, 0.1 µM, 0.36 µM, 14 µM and 0.4 µM.
For `O=C(NC1Cc2c([N+](=O)[O-])cc3[nH]c(=O)c(=O)[nH]c3c2C1)c1cccnc1` (centres unmarked) [Example 61, N-(6-Nitro-2,3-dioxo-2,3,4,7,8,9-hexahydro-1H-cyclopenta[f]quinoxalin-8-yl)-nicotinamide], the half-maximal inhibitory concentration (IC50) was 0.2 µM at AMPA receptors (setting [5]), 1.03 µM in test [1] (setting [5]), 28 µM in test [2] (setting [5]) and more than 1 µM in test [3] (setting [5]).
With `O=C(NC1Cc2c([N+](=O)[O-])cc3[nH]c(=O)c(=O)[nH]c3c2C1)C1(O)OC(O)C(O)C1O` (centres unmarked) [Example 63, 2,3,4,5-Tetrahydroxy-tetrahydro-furan-2-carboxylic acid (6-nitro-2,3-dioxo-2,3,4,7,8,9-hexahydro-1H-cyclopenta[f]quinoxalin-8-yl)-amide], the IC50 was 0.58 µM at AMPA receptors (setting [5]), 1.1 µM in test [1] (setting [5]), more than 30 µM in test [2] (setting [5]) and more than 1 µM in test [3] (setting [5]).
